Source: PubChem BioAssay AID1963965 (Molecular Pharmacology Branch, DTP, NCI, 2024)
Several values for one entry are separate records, joined by “and”; a condition that tells them apart may be missing. Equal entries are not always repeated.

System: 996289-038-R-J1-PDC spheroid viability
Test: Anticancer human tumor 996289-038-R-J1-PDC patient-derived colon adenocarcinoma cell line growth inhibition [PI3K]
Conditions: spheroids with HUVEC and MSC; for viability, T/C: stronger effect = lower value
Text: Combinatorial screen of targeted agents with the PI3K inhibitors inavolisib, alpelisib, duvelisib, and copanlisib in multi-cell type tumor spheroids
A high-throughput screen of multi-cell type tumor spheroids was designed to identify active combinations of targeted small molecules and PI3K pathway inhibitors. Complex spheroids include a stromal component modeled by human endothelial cells (HUVEC) and fibroblasts modeled by human mesenchymal stem cells (MSCs). The concentration ranges selected for each drug and investigational agent were based upon clinically achievable concentrations if the clinical Cmax of the agent was known.
Compounds. The drugs and investigational agents: inavolisib (NSC800729), alpelisib (NSC765974), duvelisib (NSC772469), copanlisib (NSC816437), ipatasertib (NSC767898), afuresertib (NSC778305), talazoparib (NSC767125), sapanisertib (NSC764658), selumetinib (NSC741078), tovorafenib (DAY101, NSC766906), vemurafenib (NSC761431), ravoxertinib (NSC781343), sotorasib (NSC818433), MRTX1133 (NSC 836407), abemaciclib (NSC 768073), palbociclib (NSC758247), venetoclax (NSC 766270), SY5609 (NSC837396), enzalutamide (NSC755605), and darolutamide (NSC825331), were obtained from the National Cancer Institute (NCI) Developmental Therapeutics Program Chemical Repository. The FDA-approved anticancer drug set is available from the NCI Developmental Therapeutics Program. […] The stock solutions were prepared in dimethyl sulfoxide (DMSO, Sigma-Aldrich, St. Louis, MO, cat. D2650) at 800-fold the tested concentration and stored at -70 degrees C prior to their use. All drugs and investigational agents were tested over a range starting from a high concentration at or near the clinical Cmax and decreasing in half-log increments. If the clinical Cmax for an agent had not been determined, the highest concentration tested was 10 microM.
Cell Culture. All cells were maintained in an incubator at 37 degrees C and 5% CO2 with 95% humidity. The PDC lines were cultured according to standard operating procedures established by the NCI PDMR (https://pdmr.cancer.gov/sops/default.htm). All PDCs were thawed and cultured in Matrigel-coated flasks prepared with a working solution of 1X Ham's F-12 nutrient mix, without supplementation (Invitrogen, Waltham, MA, cat. 11765054), 100 U/mL penicillin-streptomycin (Invitrogen, cat. 15140122), and 2.5% Matrigel (Corning Inc., Corning, NY, cat. 354248) for the first three passages. The 354836-022-R-J1-PDC, 475296-252-R-J1-PDC, and 997726-040-R-J2-PDC lines were cultured in 6A media, which includes advanced DMEM/F-12 (Thermo Fisher Scientific, cat. 12634028), 10 mM HEPES (Thermo Fisher Scientific, cat. 15630080), 1X GlutaMAX supplement (Thermo Fisher Scientific, cat. 35050061), 0.1 mg/mL primocin (InvivoGen, San Diego, CA, cat. ant-pm-2), 10% defined fetal bovine serum, heat inactivated (HyClone Laboratories Inc., Logan, UT, cat. SH30070.03HI), 50% L-WRN conditioned media (ATCC, cat. CRL-3276), 1.25 mM N-Acetyl-L-cysteine (Sigma-Aldrich, cat. A9165), 10 mM nicotinamide (Sigma-Aldrich, cat. N0636), 1X B-27 supplement (Thermo Fisher Scientific, cat. 17504044), 1X N-2 supplement (Thermo Fisher Scientific, cat. 17502048), and 10 microM Y-27632 dihydrochloride (Tocris Bioscience, Bristol, United Kingdom, cat. 1254). The 624824-186-R-J2-PDC line was cultured in 6C/Colon 1B media, which includes all 6A media components plus 50 ng/mL human EGF recombinant protein (Thermo Fisher Scientific, cat. PHG0311). […]

[1] = compound alone, run of 06/13/2023
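Also: spheroids exposed to compounds for seven days before viability read.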
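For viability, T/C in this document: luminescence used as a proxy for viable cell amount; percent viability relative to DMSO vehicle control as 100%.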

Row | Structure (SMILES) | viability, T/C (compound 0.0316 µM) | viability, T/C (compound 0.1 µM) | viability, T/C (compound 1 µM) | viability, T/C (compound 3.16 µM) | viability, T/C (compound 10 µM) | IC50 (curve of compound) | viability, T/C (compound 0.316 µM) | further results
1 | C=CC(=O)N1CCN(c2nc(=O)n(-c3c(C)ccnc3C(C)C)c3nc(-c4c(O)cccc4F)c(F)cc23)C(C)C1 (stereo not given) | 99.2% [middle of 4 runs] | 97.6% [middle of 4 runs] | 106% [middle of 4 runs] | 117% [middle of 4 runs] | 111% [middle of 4 runs] | > 10 µM | – | –
2 | CC(=O)c1c(C)c2cnc(Nc3ccc(N4CCNCC4)cn3)nc2n(C2CCCC2)c1=O | 96% and 101% (2×) and 91.4% | 87.6% [middle of 4 runs] | – | – | – | > 0.1 µM | – | viability, T/C (compound 0.000316 µM): 104% [middle of 4 runs]; viability, T/C (compound 0.001 µM): 96.8% [middle of 4 runs]; viability, T/C (compound 0.01 µM): 95.5% [middle of 4 runs]
3 | CC(C)NCC(C(=O)N1CCN(c2ncnc3c2C(C)CC3O)CC1)c1ccc(Cl)cc1 (stereo not given) | 106% [middle of 4 runs] | 86.8% [middle of 4 runs] | 94.2% [middle of 4 runs] | 88% [middle of 4 runs] | 78.7% [middle of 4 runs] | > 10 µM | 99.8% [middle of 4 runs] | –
4 | CC(C)n1nc(-c2ccc3oc(N)nc3c2)c2c(N)ncnc21 | 67% [middle of 4 runs] | 35.7% [middle of 4 runs] | – | – | – | 58.6 nM [middle of 4 runs] | – | viability, T/C (compound 0.000316 µM): 105% [middle of 4 runs]; viability, T/C (compound 0.001 µM): 85.2% [middle of 4 runs]; viability, T/C (compound 0.00316 µM): 89.4% [middle of 4 runs]; viability, T/C (compound 0.01 µM): 88.6% [middle of 4 runs]
5 | CC(Cn1ccc(-c2ccc(C#N)c(Cl)c2)n1)NC(=O)c1cc(C(C)O)[nH]n1 (stereo not given) | 98.8% [middle of 4 runs] | 104% (2×) and 86.4% and 92.5% | 108% [middle of 4 runs] | 97.8% [middle of 4 runs] | 101% [middle of 4 runs] | > 10 µM | 86.8% and 108% (2×) and 113% | –
6 | CC(Nc1ccc2c(c1)OCCn1cc(N3C(=O)OCC3C(F)F)nc1-2)C(N)=O (stereo not given) | 95.4% [middle of 8 runs] | 90.3% [middle of 8 runs] | 67.5% [middle of 8 runs] | – | – | – | 80% [middle of 8 runs] | viability, T/C (compound 0.00316 µM): 105% [middle of 8 runs]; IC50 (compound alone, run of 06/12/2023): > 1 µM
7 | CC(Nc1ncnc2nc[nH]c12)c1cc2cccc(Cl)c2c(=O)n1-c1ccccc1 (stereo not given) | 99.9% [middle of 8 runs] | 98% [middle of 8 runs] | – | 89.2% [middle of 8 runs] | 95.7% [middle of 8 runs] | – | 97.6% [middle of 8 runs] | IC50 [1]: > 10 µM
8 | CCCS(=O)(=O)Nc1ccc(F)c(C(=O)c2c[nH]c3ncc(-c4ccc(Cl)cc4)cc23)c1F | 106% [middle of 4 runs] | 93.7% [middle of 4 runs] | 94.5% [middle of 4 runs] | 96.8% [middle of 4 runs] | 23.3% [middle of 4 runs] | 6.53 µM [middle of 4 runs] | 100% [middle of 4 runs] | –
9 | CCN1CCN(Cc2ccc(Nc3ncc(F)c(-c4cc(F)c5nc(C)n(C(C)C)c5c4)n3)nc2)CC1 | 94% [middle of 4 runs] | 85.2% [middle of 4 runs] | 85.3% [middle of 4 runs] | – | – | > 1 µM | 85.7% [middle of 4 runs] | viability, T/C (compound 0.00316 µM): 99.6% [middle of 4 runs]; viability, T/C (compound 0.01 µM): 91.2% [middle of 4 runs]
10 | CNC(=O)c1ccc(N2C(=S)N(c3ccc(C#N)c(C(F)(F)F)c3)C(=O)C2(C)C)cc1F | 111% and 106% (2×) and 100% | 97% [middle of 4 runs] | 113% [middle of 4 runs] | – | – | > 10 µM | 111% [middle of 4 runs] | –
11 | COc1c(OCCCN2CCOCC2)ccc2c3n(c(=NC(=O)c4cnc(N)nc4)nc12)CCN3 | 76.4% [middle of 8 runs] | 61.7% [middle of 8 runs] | 21.6% [middle of 8 runs] | – | – | – | 36.1% [middle of 8 runs] | viability, T/C (compound 0.00316 µM): 96.3% [middle of 8 runs]; viability, T/C (compound 0.01 µM): 96.2% [middle of 8 runs]; IC50 [1]: 162 nM [middle of 8 runs]
12 | C[C@@H](NC(=O)c1ncnc(N)c1Cl)c1ncc(C(=O)Nc2cc(C(F)(F)F)c(Cl)cn2)s1 | 110% [middle of 4 runs] | 103% [middle of 4 runs] | 114% [middle of 4 runs] | – | 131% [middle of 4 runs] | > 10 µM | 110% (2×) and 119% and 115% | –
13 | Cc1nc(NC(=O)N2CCCC2C(N)=O)sc1-c1ccnc(C(C)(C)C(F)(F)F)c1 (stereo not given) | 99.9% [middle of 8 runs] | 94.7% [middle of 8 runs] | 73.9% [middle of 8 runs] | 61.8% [middle of 8 runs] | 52.6% [middle of 8 runs] | – | 85.8% [middle of 8 runs] | –
14 | Cn1cnc2c(F)c(Nc3ccc(Br)cc3Cl)c(C(=O)NOCCO)cc21 | – | – | – | – | – | 229 nM [middle of 4 runs] | – | viability, T/C (compound 0.00949 µM): 89.3% [middle of 4 runs]; viability, T/C (compound 0.03 µM): 74.7% [middle of 4 runs]; viability, T/C (compound 0.0949 µM): 64% [middle of 4 runs]; viability, T/C (compound 0.3 µM): 44.4% [middle of 4 runs]; viability, T/C (compound 0.949 µM): 35.1% [middle of 4 runs]; viability, T/C (compound 3 µM): 24.5% [middle of 4 runs]
15 | Cn1ncc(Cl)c1-c1cc(C(=O)NC(CN)Cc2cccc(F)c2)sc1Cl (stereo not given) | 90% [middle of 4 runs] | 90.5% [middle of 4 runs] | 79.9% [middle of 4 runs] | 75.6% [middle of 4 runs] | 52.2% [middle of 4 runs] | > 10 µM and 9.82 µM | 84% [middle of 4 runs] | –
16 | Cn1nccc1Nc1nccc(-c2ccn(C(CO)c3ccc(Cl)c(F)c3)c(=O)c2)n1 (stereo not given) | 98.7% [middle of 4 runs] | 97% [middle of 4 runs] | 90.8% [middle of 4 runs] | 76.5% [middle of 4 runs] | 64.7% [middle of 4 runs] | > 10 µM | 112% [middle of 4 runs] | –
17 | Cn1ncnc1[C@H]1c2n[nH]c(=O)c3cc(F)cc(c23)N[C@@H]1c1ccc(F)cc1 | 109% [middle of 4 runs] | 98.9% [middle of 4 runs] | – | – | – | > 0.1 µM | – | viability, T/C (compound 0.001 µM): 105% [middle of 4 runs]; viability, T/C (compound 0.00316 µM): 103% [middle of 4 runs]; viability, T/C (compound 0.01 µM): 100% [middle of 4 runs]
